Values after ≈ are worked out from the molar mass of the structure shown.

The test system of experiment [1] is Candida albicans. Put plainly: Fungicidal activity against Candida albicans MTCC 3017 incubated for 24 hrs followed by microbial sample growth Sabouraud dextrose agar plates. Type of experiment: functional. The settings on record: MTCC 3017, 24 h.
Experiment [2] concerns Bacillus subtilis. Description: Bactericidal activity against gram-positive Bacillus subtilis MTCC 121 incubated for 24 hrs followed by microbial sample growth at Mueller Hinton agar plates. It counts as functional. The settings on record: MTCC 121, 24 h.
For experiment [3], the system named is Staphylococcus aureus. Description: Bactericidal activity against gram-positive Staphylococcus aureus MTCC 96 incubated for 24 hrs followed by microbial sample growth at Mueller Hinton agar plates. Type of experiment: functional. The note with it: MTCC 96, 24 h.
Experiment [4] concerns Staphylococcus aureus. Description: Antibacterial activity against gram-positive Staphylococcus aureus MTCC 96 after 24 hrs by agar well diffusion method. Type of experiment: functional. The settings on record: MTCC 96, 24 h.
The subject of experiment [5] is Bacillus subtilis. Put plainly: Antibacterial activity against gram-positive Bacillus subtilis MTCC 121 after 24 hrs by agar well diffusion method. The note with it: MTCC 121, 24 h. It counts as functional.
Experiment [6] concerns Staphylococcus aureus. Put plainly: Bactericidal activity against gram-positive Staphylococcus aureus MLS-16 MTCC 2940 incubated for 24 hrs followed by microbial sample growth at Mueller Hinton agar plates. It counts as functional. The note with it: MLS-16 MTCC 2940, 24 h.
Experiment [7] relates to Escherichia coli. Put plainly: Bactericidal activity against gram-negative Escherichia coli MTCC 739 incubated for 24 hrs followed by microbial sample growth at Mueller Hinton agar plates. Type of experiment: functional. The note with it: MTCC 739, 24 h.
Experiment [8] concerns Escherichia coli. Put plainly: Antibacterial activity against gram-negative Escherichia coli MTCC 739 after 24 hrs by agar well diffusion method. The note with it: MTCC 739, 24 h. Type of experiment: functional. In general terms: Agar diffusion results depend on both activity and mobility in agar.
The subject of experiment [9] is Micrococcus luteus. Description: Antibacterial activity against gram-positive Micrococcus luteus MTCC 2470 after 24 hrs by agar well diffusion method. It counts as functional. The settings on record: MTCC 2470, 24 h.
For experiment [10], the system named is Raoultella planticola. Description: Bactericidal activity against gram-negative Klebsiella planticola MTCC 530 incubated for 24 hrs followed by microbial sample growth at Mueller Hinton agar plates. The settings on record: MTCC 530, 24 h. Type of experiment: functional.
The test system of experiment [11] is Candida albicans. Description: Antifungal activity against Candida albicans MTCC 3017 after 24 hrs by agar well diffusion method. The settings on record: MTCC 3017, 24 h. It counts as functional.
The subject of experiment [12] is Raoultella planticola. Put plainly: Antibacterial activity against gram-negative Klebsiella planticola MTCC 530 after 24 hrs by agar well diffusion method. Type of experiment: functional. The settings on record: MTCC 530, 24 h.
In experiment [13] the test system is Micrococcus luteus. Put plainly: Bactericidal activity against gram-positive Micrococcus luteus MTCC 2470 incubated for 24 hrs followed by microbial sample growth at Mueller Hinton agar plates. Type of experiment: functional. The note with it: MTCC 2470, 24 h.
The target in experiment [14] is T1, 4,4'-diapophytoene synthase (Staphylococcus aureus, UniProt A9JQL9).
T1 sequence (A9JQL9 whole entry): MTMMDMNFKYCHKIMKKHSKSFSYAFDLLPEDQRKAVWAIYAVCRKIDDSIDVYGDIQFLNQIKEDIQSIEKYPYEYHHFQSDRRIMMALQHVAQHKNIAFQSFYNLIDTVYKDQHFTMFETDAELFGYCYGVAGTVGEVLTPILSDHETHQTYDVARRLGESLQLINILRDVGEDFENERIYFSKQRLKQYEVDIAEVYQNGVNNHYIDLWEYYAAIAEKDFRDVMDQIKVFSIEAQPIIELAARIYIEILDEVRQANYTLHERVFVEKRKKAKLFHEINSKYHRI
Description: Inhibition of Staphylococcus aureus dehydrosqualene synthase.

Experiment [15] concerns Staphylococcus aureus. Put plainly: Antibacterial activity against gram-positive Staphylococcus aureus MLS-16 MTCC 2940 after 24 hrs by agar well diffusion method. It counts as functional. The note with it: MLS-16 MTCC 2940, 24 h.
A further experiment has as its system Pseudomonas aeruginosa. Put plainly: microbe, parasite or virus in culture. The note with it: MTCC 2453, 24 h.

Description for Pseudomonas aeruginosa: Bactericidal activity against gram-negative Pseudomonas aeruginosa MTCC 2453 incubated for 24 hrs followed by microbial sample growth at Mueller Hinton agar plates

On to `CCOC(=O)c1c(N2CCN(c3ccc(F)cc3)CC2)c2ccccc2n(CC)c1=O`, for which the MFC (usually the smallest concentration meeting the test's criterion for killing the fungus) against Candida albicans [1] was 7.8 µg/mL (≈ 18.4 µM). Besides, the MBC in the experiment on Bacillus subtilis [2], in the experiment on Staphylococcus aureus [3], with Staphylococcus aureus [6], against Escherichia coli [7], with Raoultella planticola [10] and with Micrococcus luteus [13] was 7.8 µg/mL (≈ 18.4 µM) each time. The minimal inhibitory concentration (MIC) with Staphylococcus aureus [4], against Bacillus subtilis [5], with Escherichia coli [8], in the experiment on Micrococcus luteus [9], against Candida albicans [11] and with Raoultella planticola [12] was 3.9 µg/mL (≈ 9.21 µM) throughout. In addition, in the experiment with Staphylococcus aureus [15], inhibition of growth (MIC) required 3.9 µg/mL (≈ 9.21 µM). Moreover, the Ki (as a rule, the equilibrium dissociation constant of an inhibitor or competing ligand from its target) in experiment [14] amounted to 6.89 µM.
In the experiment with Staphylococcus aureus [3], `CCOC(=O)c1c(N2CCN(c3ccccc3OC)CC2)c2ccccc2n(C)c1=O` had an MBC of 7.8 µg/mL (≈ 18.5 µM). Besides, 3.9 µg/mL (≈ 9.25 µM) was the least that counted as inhibitory in the experiment with Staphylococcus aureus [4] (MIC). Also, the affinity in experiment [14] corresponds to a Ki of 19.8 µM.
As for `CCOC(=O)c1c(N2CCN(c3ccccc3F)CC2)c2ccccc2n(CC)c1=O`, the MBC in the experiment on Staphylococcus aureus [3] and with Raoultella planticola [10] was 7.8 µg/mL (≈ 18.4 µM) each time. Further, the results for the MIC against Staphylococcus aureus [4] and in the experiment with Raoultella planticola [12] were 3.9 µg/mL (≈ 9.21 µM) and 7.8 µg/mL (≈ 18.4 µM), respectively. This compound showed a Ki in [14] of 8.33 µM.
In the experiment with Staphylococcus aureus [3], `CCOC(=O)c1c(N2CCN(C(=O)OC(C)(C)C)CC2)c2ccccc2n(CC)c1=O` yielded an MBC of 7.8 µg/mL (≈ 18.2 µM). Inhibition of growth against Staphylococcus aureus [4] (MIC) required 3.9 µg/mL (≈ 9.08 µM). This compound also yielded a Ki in experiment [14] of 20.2 µM.
In the same order, the values of `CCOC(=O)c1c(N2CCN(C(=O)OC(C)(C)C)CC2)c2ccccc2n(C)c1=O` are 7.8 µg/mL (≈ 18.8 µM), 3.9 µg/mL (≈ 9.39 µM) and 5.19 µM.
Take `CCOC(=O)c1c(N2CCN(c3cccc(OC)c3)CC2)c2ccccc2n(CC)c1=O`: the MBC against Staphylococcus aureus [3] came out at 7.8 µg/mL (≈ 17.9 µM); against Micrococcus luteus [13] it was 15.6 µg/mL (≈ 35.8 µM). Besides, the MIC (usually the smallest concentration in the dilution series that meets the test's criterion for growth inhibition) in the experiment with Staphylococcus aureus [4] stood at 3.9 µg/mL (≈ 8.95 µM); against Micrococcus luteus [9], 7.8 µg/mL (≈ 17.9 µM). Further, in experiment [14], the inhibition constant (Ki) was found to be 15.7 µM.
For `CCOC(=O)c1c(N2CCCC2)c2ccccc2n(CC)c1=O`, in the experiment on Micrococcus luteus [9], it took 7.8 µg/mL (≈ 24.8 µM) to inhibit growth (MIC). The compound also returned an MBC against Micrococcus luteus [13] of 15.6 µg/mL (≈ 49.6 µM).
Take `CCOC(=O)c1c(N2CCN(c3ccccc3C(F)(F)F)CC2)c2ccccc2n(C)c1=O`: the MFC with Candida albicans [1] was 15.6 µg/mL (≈ 34 µM). This compound had an MIC against Candida albicans [11] of 7.8 µg/mL (≈ 17 µM).
As for `CCOC(=O)c1c(N2CCN(c3ccccc3C(F)(F)F)CC2)c2ccccc2n(CC)c1=O`, the MFC against Candida albicans [1] came out at 15.6 µg/mL (≈ 32.9 µM). Moreover, the MBC in the experiment with Bacillus subtilis [2] and in the experiment with Escherichia coli [7] was 15.6 µg/mL (≈ 32.9 µM) in each case. Further, the MIC in the experiment with Bacillus subtilis [5], against Escherichia coli [8] and against Candida albicans [11] was 7.8 µg/mL (≈ 16.5 µM) throughout.
In turn, `CCOC(=O)c1c(N2CCN(c3ccc(F)cc3)CC2)c2ccccc2n(C)c1=O` showed an MFC in the experiment with Candida albicans [1] of 15.6 µg/mL (≈ 38.1 µM). Also, the MBC against Staphylococcus aureus [3] was found to be 7.8 µg/mL (≈ 19 µM). Besides, the MIC with Staphylococcus aureus [4] is 3.9 µg/mL (≈ 9.52 µM); in the experiment with Candida albicans [11], 7.8 µg/mL (≈ 19 µM). In addition, the inhibitory constant (Ki) in experiment [14] was found to be 1.26 µM.
As for `O=C(O)c1cn(C2CC2)c2cc(N3CCNCC3)c(F)cc2c1=O` [CIPROFLOXACIN], the MBC against Bacillus subtilis [2], in the experiment with Staphylococcus aureus [3], in the experiment with Staphylococcus aureus [6], in the experiment with Escherichia coli [7], against Raoultella planticola [10] and in the experiment with Micrococcus luteus [13] was 0.9 µg/mL (≈ 2.72 µM) in each case. Moreover, the MBC in the experiment on Pseudomonas aeruginosa was determined as 0.9 µg/mL (≈ 2.72 µM). Besides, the MIC with Staphylococcus aureus [4], against Bacillus subtilis [5], with Escherichia coli [8], against Micrococcus luteus [9], in the experiment with Raoultella planticola [12] and against Staphylococcus aureus [15] was 0.9 µg/mL (≈ 2.72 µM) each time.
In turn, `CCOC(=O)c1c(N2CCN(c3ccccc3F)CC2)c2ccccc2n(C)c1=O` gave a minimal fungicidal concentration (MFC) against Candida albicans [1] of 7.8 µg/mL (≈ 19 µM). In addition, the MBC worked out at 7.8 µg/mL (≈ 19 µM) with Bacillus subtilis [2]; 7.8 µg/mL (≈ 19 µM) in the experiment with Staphylococcus aureus [3]; 15.6 µg/mL (≈ 38.1 µM) in the experiment with Staphylococcus aureus [6]; 7.8 µg/mL (≈ 19 µM) with Escherichia coli [7]; 7.8 µg/mL (≈ 19 µM) with Micrococcus luteus [13]. Also, the MIC in the experiment on Staphylococcus aureus [4] was found to be 3.9 µg/mL (≈ 9.52 µM); in the experiment on Bacillus subtilis [5] it was 3.9 µg/mL (≈ 9.52 µM); with Escherichia coli [8], 3.9 µg/mL (≈ 9.52 µM); against Micrococcus luteus [9] it was 3.9 µg/mL (≈ 9.52 µM); with Candida albicans [11] it was 3.9 µg/mL (≈ 9.52 µM); in the experiment with Staphylococcus aureus [15], 7.8 µg/mL (≈ 19 µM). The Ki in experiment [14] came to 7.87 µM.
`Clc1ccc(COC(Cn2ccnc2)c2ccc(Cl)cc2Cl)c(Cl)c1` (stereo not given) [MICONAZOLE] registered an MFC with Candida albicans [1] of 7.8 µg/mL (≈ 18.7 µM). This compound gave an MIC in the experiment on Candida albicans [11] of 7.8 µg/mL (≈ 18.7 µM).
On to `CCOC(=O)c1c(N2CCN(c3ccccc3OC)CC2)c2ccccc2n(CC)c1=O`, for which the MBC in the experiment with Staphylococcus aureus [3] came to 7.8 µg/mL (≈ 17.9 µM). For the same compound, 3.9 µg/mL (≈ 8.95 µM) was the least that counted as inhibitory in the experiment with Staphylococcus aureus [4] (MIC). The compound further showed a Ki in experiment [14] of 14 µM.

Source of the values: ChEMBL document CHEMBL4219137, “A novel templates of piperazinyl-1,2-dihydroquinoline-3-carboxylates: Synthesis, anti-microbial evaluation and molecular docking studies” (Bioorg Med Chem Lett, 2018).
